{
  "source": "patent US9890171B2",
  "about": "“Aldosterone synthase inhibitors” (Boehringer Ingelheim International GmbH, priority 2014, dated 2018)",
  "data": [
    {"biological_target": "aldosterone synthase (CYP11B2) (Macaca fascicularis, UniProt A0A2K5UPL9)", "sequence (A0A2K5UPL9 1-503)": "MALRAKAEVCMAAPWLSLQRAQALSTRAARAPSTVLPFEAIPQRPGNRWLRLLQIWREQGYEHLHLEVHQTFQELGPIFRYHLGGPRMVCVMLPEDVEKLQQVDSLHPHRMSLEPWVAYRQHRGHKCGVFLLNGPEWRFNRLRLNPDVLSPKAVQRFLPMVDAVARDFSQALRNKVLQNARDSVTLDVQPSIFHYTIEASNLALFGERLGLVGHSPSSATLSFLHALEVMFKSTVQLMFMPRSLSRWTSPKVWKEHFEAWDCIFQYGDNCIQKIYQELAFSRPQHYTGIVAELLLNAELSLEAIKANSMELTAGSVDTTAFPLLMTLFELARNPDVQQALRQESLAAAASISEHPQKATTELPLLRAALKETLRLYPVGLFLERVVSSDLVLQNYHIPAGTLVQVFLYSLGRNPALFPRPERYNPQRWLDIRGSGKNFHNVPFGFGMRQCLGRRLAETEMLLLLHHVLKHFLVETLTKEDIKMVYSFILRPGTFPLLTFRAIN", "assay": "aldosterone synthase inhibition assay", "assay_type": "biochemical, cynomolgus monkey", "details": "cynomolgus adrenal gland mitochondria, 2 μM corticosterone, aldosterone quantified by mass spectrometry", "outline": "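Cynomolgus adrenal mitochondria ([…]) used as CYP11B2 source with 2 μM corticosterone in 100 mM potassium phosphate pH 7.4, 1% DMSO; reaction started with 1 mM NADPH, run 60-90 min at 37° C. Aldosterone measured by mass spectrometry; IC50 from 4-parameter logistic fit, no-NADPH blank as 0%.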", "units": {"IC50": "nM"}, "values": [
      {"smiles": "Cc1nnc2ccc(-c3cncc4c3COCC4O)cn12", "note": "(single isomer, unassigned) [Compound 97, 8-(3-Methyl-[1,2,4]triazolo[4,3-a]pyridin-6-yl)-3,4-dihydro-1H-pyrano[4,3-c]pyridin-4-ol]", "IC50": 205},
      {"smiles": "OC1COCc2c(-c3ccc4nncn4c3)cncc21", "note": "(single isomer, unassigned) [Compound 98, 8-[1,2,4]Triazolo[4,3-a]pyridin-6-yl-3,4-dihydro-1H-pyrano[4,3-c]pyridin-4-ol]", "IC50": 1300},
      {"smiles": "OC1COCc2c(-c3ccn4ccnc4c3)cncc21", "note": "(single isomer, unassigned) [Compound 99, 8-Imidazo[1,2-a]pyridin-7-yl-3,4-dihydro-1H-pyrano[4,3-c]pyridin-4-ol]", "IC50": 5000},
      {"smiles": "OC1COCc2c(-c3ccc4nncn4c3)cncc21", "note": "(single isomer, unassigned) [Compound 100, 8-[1,2,4]Triazolo[4,3-a]pyridin-6-yl-3,4-dihydro-1H-pyrano[4,3-c]pyridin-4-ol]", "IC50": 2300},
      {"smiles": "OC1COCc2c(-c3ccn4ccnc4c3)cncc21", "note": "(single isomer, unassigned) [Compound 101, 8-Imidazo[1,2-a]pyridin-7-yl-3,4-dihydro-1H-pyrano[4,3-c]pyridin-4-ol]", "IC50": 225},
      {"smiles": "O=C1CCc2cc(-c3cncc4c3COCC4O)ccc21", "note": "(single isomer, unassigned) [Compound 103, 5-(4-Hydroxy-3,4-dihydro-1H-pyrano[4,3-c]pyridin-8-yl)-indan-1-one]", "IC50": 10},
      {"smiles": "NC(=O)c1cccc2cc(-c3cncc4c3COCC4O)cnc12", "note": "(single isomer, unassigned) [Compound 104, 3-(4-Hydroxy-3,4-dihydro-1H-pyrano[4,3-c]pyridin-8-yl)-quinoline-8-carboxylic acid amide]", "IC50": 81},
      {"smiles": "NC(=O)c1cccc2cc(-c3cncc4c3COCC4O)cnc12", "note": "(single isomer, unassigned) [Compound 105, 3-(4-Hydroxy-3,4-dihydro-1H-pyrano[4,3-c]pyridin-8-yl)-quinoline-8-carboxylic acid amide]", "IC50": 51.1},
      {"smiles": "Cn1ncc2c(C#N)cc(-c3cncc4c3COCC4O)cc21", "note": "(single isomer, unassigned) [Compound 106, 6-(4-Hydroxy-3,4-dihydro-1H-pyrano[4,3-c]pyridin-8-yl)-1-methyl-1H-indazole-4-carbonitrile]", "IC50": 599},
      {"smiles": "OC1COCc2c(-c3ccc4c(c3)COCCO4)cncc21", "note": "(single isomer, unassigned) [Compound 107, 8-(2,3-Dihydro-5H-benzo[e][1,4]dioxepin-7-yl)-3,4-dihydro-1H-pyrano[4,3-c]pyridin-4-ol]", "IC50": 79.9},
      {"smiles": "OC1COCc2c(-c3ccc4c(c3)COCCO4)cncc21", "note": "(single isomer, unassigned) [Compound 108, 8-(2,3-Dihydro-5H-benzo[e][1,4]dioxepin-7-yl)-3,4-dihydro-1H-pyrano[4,3-c]pyridin-4-ol]", "IC50": 771},
      {"smiles": "CC(=O)N1Cc2ccc(-c3cncc4c3COCC4O)cc2C1", "note": "(single isomer, unassigned) [Compound 109, 1-[5-(4-Hydroxy-3,4-dihydro-1H-pyrano[4,3-c]pyridin-8-yl)-1,3-dihydro-isoindol-2-yl]-ethanone]", "IC50": 544},
      {"smiles": "O=c1ccoc2cc(-c3cncc4c3COCC4O)ccc12", "note": "(single isomer, unassigned) [Compound 110, 7-(4-Hydroxy-3,4-dihydro-1H-pyrano[4,3-c]pyridin-8-yl)-chromen-4-one]", "IC50": 13},
      {"smiles": "OC1c2cncc(-c3ccc4c(c3)COCCO4)c2COC12CC2", "note": "(single isomer, unassigned) [Compound 111, 8-(3,5-dihydro-2H-1,4-benzo[e][1,4]dioxepin-7-yl)spiro[1,4-dihydropyrano[4,3-c]pyridine-3,1′-cyclopropane]-4-ol]", "IC50": 114},
      {"smiles": "OC1c2cncc(-c3ccc4c(c3)COCCO4)c2COC12CC2", "note": "(single isomer, unassigned) [Compound 112, 8-(3,5-dihydro-2H-1,4-benzo[e][1,4]dioxepin-7-yl)spiro[1,4-dihydropyrano[4,3-c]pyridine-3,1′-cyclopropane]-4-ol]", "IC50": 40.9},
      {"smiles": "Cn1nc(C#N)c2ccc(-c3cncc4c3COCC4O)cc21", "note": "(single isomer, unassigned) [Compound 113, 6-(4-Hydroxy-3,4-dihydro-1H-pyrano[4,3-c]pyridin-8-yl)-1-methyl-1H-indazole-3-carbonitrile]", "IC50": 14.5},
      {"smiles": "Cc1noc2ccc(-c3cncc4c3COC3(CC3)C4O)cc12", "note": "(single isomer, unassigned) [Compound 114, 8-(3-methyl-1,2-benzoxazol-5-yl)spiro[1,4-dihydropyrano[4,3-c]pyridine-3,1′-cyclopropane]-4-ol]", "IC50": 18.8},
      {"smiles": "O=C1CCCc2ccc(-c3cncc4c3COCC4O)cc21", "note": "(single isomer, unassigned) [Compound 115, 7-(4-Hydroxy-3,4-dihydro-1H-pyrano[4,3-c]pyridin-8-yl)-3,4-dihydro-2H-naphthalen-1-one]", "IC50": 580},
      {"smiles": "O=C1CCCc2ccc(-c3cncc4c3COCC4O)cc21", "note": "(single isomer, unassigned) [Compound 116, 7-(4-Hydroxy-3,4-dihydro-1H-pyrano[4,3-c]pyridin-8-yl)-3,4-dihydro-2H-naphthalen-1-one]", "IC50": 26.3},
      {"smiles": "O=C1CCCc2cc(-c3cncc4c3COCC4O)ccc21", "note": "(single isomer, unassigned) [Compound 117, 6-(4-Hydroxy-3,4-dihydro-1H-pyrano[4,3-c]pyridin-8-yl)-3,4-dihydro-2H-naphthalen-1-one]", "IC50": 103},
      {"smiles": "O=C1CCCc2cc(-c3cncc4c3COCC4O)ccc21", "note": "(single isomer, unassigned) [Compound 118, 6-(4-Hydroxy-3,4-dihydro-1H-pyrano[4,3-c]pyridin-8-yl)-3,4-dihydro-2H-naphthalen-1-one]", "IC50": 12.5},
      {"smiles": "O=C1NCCc2ccc(-c3cncc4c3COCC4O)cc21", "note": "(single isomer, unassigned) [Compound 119, 7-(4-Hydroxy-3,4-dihydro-1H-pyrano[4,3-c]pyridin-8-yl)-3,4-dihydro-2H-isoquinolin-1-one]", "IC50": 960},
      {"smiles": "O=C1NCCc2cc(-c3cncc4c3COCC4O)ccc21", "note": "(single isomer, unassigned) [Compound 120, 6-(4-Hydroxy-3,4-dihydro-1H-pyrano[4,3-c]pyridin-8-yl)-3,4-dihydro-2H-isoquinolin-1-one]", "IC50": 790},
      {"smiles": "O=C1NCCc2cc(-c3cncc4c3COCC4O)ccc21", "note": "(single isomer, unassigned) [Compound 121, 6-(4-Hydroxy-3,4-dihydro-1H-pyrano[4,3-c]pyridin-8-yl)-3,4-dihydro-2H-isoquinolin-1-one]", "IC50": 95},
      {"smiles": "O=C1CCOc2cc(-c3cncc4c3COCC4O)ccc21", "note": "(single isomer, unassigned) [Compound 122, 7-(4-Hydroxy-3,4-dihydro-1H-pyrano[4,3-c]pyridin-8-yl)-chroman-4-one]", "IC50": 194},
      {"smiles": "O=C1CCOc2cc(-c3cncc4c3COCC4O)ccc21", "note": "(single isomer, unassigned) [Compound 123, 7-(4-Hydroxy-3,4-dihydro-1H-pyrano[4,3-c]pyridin-8-yl)-chroman-4-one]", "IC50": 16.3},
      {"smiles": "CN1CCc2cc(-c3cncc4c3COCC4O)ccc2C1=O", "note": "(single isomer, unassigned) [Compound 124, 6-(4-Hydroxy-3,4-dihydro-1H-pyrano[4,3-c]pyridin-8-yl)-2-methyl-3,4-dihydro-2H-isoquinolin-1-one]", "IC50": 1010}
    ]}
  ]
}
